The source of these data is US12194046B2 (priority 2021, dated 2025).

A short description of series [1]: Pharmacokinetic study: plasma and brain concentrations after a single oral (gavage) dose in rats. The class given is in vivo, Sprague-Dawley rats. The conditions noted are these: oral gavage 2 mg/kg. From the text:
Serial blood samples were collected from three animals per group per timepoint prior to dosing and at 0.25, 0.5, 1, 2, 3 4, 6, 8, 10, 12, and 14-hours post dose. No more than three blood samples were collected from individual animals with the last sample being a terminal blood draw. Terminal brain samples were collected from three animals per group at 1, 4, 8, and 14-hours post dose. Blood samples were collected into tubes containing sodium heparin, and then processed for plasma and stored frozen until bioanalysis. Brain samples were collected following the terminal blood collection, rinsed with saline, and stored frozen until bioanalysis.
Non-compartmental pharmacokinetic parameter estimates were calculated from the mean plasma concentration-time data.
Animals were fasted overnight prior to dose administration. Water was provided ad libitum. Food was returned after the collection of the 4-hour samples.
Prior to dosing, the body weight of each animal was recorded. Doses (rounded to the nearest 0.001 mL) were calculated based on the pretreatment body weight (kg) and a dose volume of 10 mL/kg. […] Dosing syringes were weighed immediately prior to and immediately after dosing each animal, and the quantity of formulation administered to each animal was determined from the difference in syringe weights.
Immediately after the 1, 4, 8 and 14-hour blood collections, three animals/group were euthanized and the brain was dissected out of each rat. […] Brain weights were calculated for each sample. […]
The concentration-time data were analyzed to fit an extra-vascular (oral gavage) dosing plasma analysis model (200) using the software WinNonlin Phoenix version 6.3 (Pharsight).
Areas-under-the-plasma concentration-time curves (AUC) were estimated using the linear trapezoidal rule. […] Apparent T1/2 was calculated using the slope of the log-linear terminal phase of the concentration-time curve, defined by a minimum of three plasma concentration-time points. Half-lives are reported if the correlation for the regression line, as measured by r squared, is ≥0.9, when rounded.

The next series can be described thus: clinical. The conditions noted are these: both, human, in vivo, po.
For another series, the system named is human hepatocytes. On the procedure:
Cryopreserved human hepatocytes were thawed and suspended into 50 ml of InVitro GRO HT-medium. The cells were centrifuged (50 g, 5 min) and resuspended into InVitro GRO KHB-medium (protein free). The cell density and viability were determined by trypan blue exclusion method.
Instrumentation: Waters Acquity UPLC+Waters TQ-S triple quadrupole MS; Column: Phenomenex Kinetex Biphenyl (2.1×100 mm, 1.8 μm) column with guard filter; Software: MassLynx 4.2.
The samples were analysed at 0, 30, 60, 90, and 120 minutes (with and without hepatocytes) by LC/MS/MS to monitor substrate depletion and formation of metabolites theophylline, theobromine and paraxanthine.

Regarding `[2H]C([2H])([2H])n1c(=O)c2c(ncn2C([2H])([2H])[2H])n(C([2H])([2H])[2H])c1=O` [d9-caffeine, 1,3,7-tri-trideuteromethylxanthine], the “total brain exposure (AUClast,corr) higher than caffeine” value in series [1] (rat brain, molecular weight corrected) was “approximately 52%”. In series [1] (rat plasma, molecular weight corrected), the “total systemic exposure (AUCinf) higher than caffeine” value was “approximately 77%”. For the same molecule, the half-life in the series “clinical” (50 mg) was 32.2 h. In addition, in the series “clinical” (52.3 mg), the AUC(0-t) was 192 µM·h, the concentration peaked (Cmax) at 6.62 µM and the MRT turned out to be 19.7 h. Besides, the half-life in “clinical” (250 mg) was 25.6 h. Moreover, in “clinical” (261.7 mg), the AUC(0-t) was 972 µM·h, the Cmax amounted to 36.5 µM and the MRT turned out to be 18.9 h. For the same molecule, in the series on human hepatocytes, the “formation of metabolite theobromine” value is listed as “not detected” and the “substrate depletion (disappearance)” value is recorded as “No clear disappearance”.

On to `Cn1c(=O)c2c(ncn2C)n(C)c1=O` [caffeine, reference compound], for which the “Cmax, corr (molecular weight corrected)” value in series [1] (rat plasma, caffeine values multiplied by 0.956) amounted to 2486 ng/mL. For the same molecule, in the series “clinical” (50 mg), the half-life was 5.41 h. In addition, in the series “clinical” (52.3 mg), the AUC(0-t) turned out to be 47.2 µM·h, the Cmax is 5.32 µM and the MRT was 7.3 h. Besides, the half-life in the series “clinical” (250 mg) is 4.25 h. Moreover, in “clinical” (261.7 mg), the AUC(0-t) amounted to 206 µM·h, the Cmax stood at 25.1 µM and the MRT was 4.3 h. For the same molecule, in the series with human hepatocytes, the “formation of metabolite theobromine” value is listed as “not detected” and the “substrate depletion (disappearance)” value was “No clear disappearance”.

A word on the half-life: it is how long it takes for the measured level to halve. The low end stands for fast loss, the high end for slow loss. The term AUC(0-t) denotes exposure summed from dosing to a finite time, without extrapolation to infinity. What is called Cmax is the peak of the concentration-time curve. One may read the MRT as the average time that molecules of a dose stay in the body.
